Source: publication PMC9127750, “Structure-based design of CDC42 effector interaction inhibitors for the treatment of cancer” (Cell reports, 2022)
Values joined by “and” are separate entries in the source; they are usually repeats but may differ in a detail not shown here. Equal entries are not always repeated.

System: WM3248 melanoma cells, 486 antibodies
Experiment: Reverse phase protein arrays (RPPA)
Format: cell-based, Human
Excerpt: Pellets were snap frozen in liquid nitrogen and shipped to MD Anderson Cancer Center core RPPA facility for RPPA analysis (Table S5). Three biological replicates for each sample were generated.
Nomenclatures on the RPPA heatmaps: name_of_antibody.species_of_antibody.status_of_antibody. V - antibody validated; C - validation of antibody in progress; Q - antibody nonspecific; E – under evaluation; antibodies raised in M - mouse, G - goat, R - rabbit, or T - rat.

[1] = level 20 normalized to 0, mean of 3
[2] = level 20 normalized to 0, single replicates

For `CN(C)c1cccc(Nc2cc(-c3ccccc3)nc(C3CCNCC3)n2)c1` [ARN22089, N1,N1-dimethyl-N3-(6-phenyl-2-(piperidin-4-yl)pyrimidin-4-yl)benzene-1,3-diamine], the “MEK1_pS217_S221.R.V Norm_10” value (level 10 vs 0, replicates) was 0.653 and 1.014, the “MEK2.R.V Norm_10” value (level 10 vs 0, replicates) was 0.958 and the “MERIT40.R.C Norm_10” value (level 10 vs 0, replicates) was 0.835 and 0.967 and 1.096. The “MERIT40_pS29.R.V Norm_10” value (level 10 vs 0, replicates) was 1.054 and 0.952 and 1.159, the “METTL3.R.V Norm_10” value (level 10 vs 0, replicates) was 0.943 and 1.355 and 1.161 and the “MIF.R.C Norm_10” value (level 10 vs 0, replicates) was 0.886 and 1.129 and 0.994. The “MIG6.R.V Norm_10” value (level 10 vs 0, replicates) was 0.854 and 1.033 and 0.924, the “MITF.R.V Norm_10” value (level 10 vs 0, replicates) was 1.203 and 1.053 and the “MLH1.M.V Norm_10” value (level 10 vs 0, replicates) was 0.862 and 0.921 and 1.113. For the same compound, the “MLKL.R.V Norm_10” value (level 10 vs 0, replicates) was 0.834 and 0.796, the “MMP2.R.V Norm_10” value (level 10 vs 0, replicates) was 0.901 and 0.975 and 0.933 and the “MMP14.R.V Norm_10” value (level 10 vs 0, replicates) was 1.370 and 1.223 and 1.159. For the same compound, the “MR1.M.C Norm_10” value (level 10 vs 0, replicates) was 0.964 and 0.975, the “MRAP.R.C Norm_10” value (level 10 vs 0, replicates) was 1.105 and 1.029 and 0.983 and the “MSH2.R.C Norm_10” value (level 10 vs 0, replicates) was 0.935 and 1.122. The “MSH6.R.C Norm_10” value (level 10 vs 0, replicates) was 1.082 and 1.155, the “MSI2.R.C Norm_10” value (level 10 vs 0, replicates) was 1.122 and 1.158 and 0.948 and the “MTCO1.M.V Norm_10” value (level 10 vs 0, replicates) was 0.961 and 1.134 and 1.079. For the same compound, the “MTSS1.M.C Norm_10” value (level 10 vs 0, replicates) was 0.883 and 1.065, the “Mcl.1.R.V Norm_10” value (level 10 vs 0, replicates) was 0.859 and 0.752 and 0.834 and the “MelanA.R.C Norm_10” value (level 10 vs 0, replicates) was 0.771 and 0.904 and 1.047. For the same compound, the “Melanoma.gp100.R.C Norm_10” value (level 10 vs 0, replicates) was 0.993 and 0.873 and 0.988, the “Merlin.R.C Norm_10” value (level 10 vs 0, replicates) was 1.228 and 1.105 and the “Midkine.R.V Norm_10” value (level 10 vs 0, replicates) was 0.894 and 0.939 and 0.959. For the same compound, the “Mitofusin.1.R.V Norm_10” value (level 10 vs 0, replicates) was 0.986 and 0.948 and 0.964, the “Mitofusin.2.R.V Norm_10” value (level 10 vs 0, replicates) was 0.858 and 0.863 and 1.224 and the “Mnk1.R.V Norm_10” value (level 10 vs 0, replicates) was 0.920 and 0.841 and 0.963. The “mTOR.R.V Norm_10” value (level 10 vs 0, replicates) was 0.942 and 0.902 and 1.003, the “mTOR_pS2448.R.C Norm_10” value (level 10 vs 0, replicates) was 1.029 and 0.921 and 1.128 and the “TSC1.R.C Norm_20 Average” value [1] was 0.903. The “TTF1.R.V Norm_20 Average” value [1] was 1.162, the “TUFM.R.V Norm_20 Average” value [1] was 0.835 and the “Tuberin.R.V Norm_20 Average” value [1] was 1.019. The “Tuberin_pT1462.R.V Norm_20 Average” value [1] was 1.096, the “Twist.M.C Norm_20 Average” value [1] was 0.916 and the “Tyro3.R.V Norm_20 Average” value [1] was 1.270. For the same compound, the “U.Histone.H2B.R.C Norm_20 Average” value [1] was 2.670, the “UBQLN4.M.C Norm_20 Average” value [1] was 0.936 and the “UGT1A.M.V Norm_20 Average” value [1] was 0.975. The “ULK1_pS757.R.C Norm_20 Average” value [1] was 0.888, the “UVRAG.R.C Norm_20 Average” value [1] was 1.003 and the “VASP.R.V Norm_20 Average” value [1] was 0.936. For the same compound, the “VAV1.R.C Norm_20 Average” value [1] was 1.004, the “VEGFR.2.R.V Norm_20 Average” value [1] was 0.966 and the “VEGFR.2_pY1175.R.C Norm_20 Average” value [1] was 0.978. The “VHL.EPPK1.M.C Norm_20 Average” value [1] was 0.882, the “VHL.R.C Norm_20 Average” value [1] was 0.906 and the “Vinculin.M.V Norm_20 Average” value [1] was 0.932. The “WIPI1.R.C Norm_20 Average” value [1] was 1.388, the “WIPI2.R.C Norm_20 Average” value [1] was 1.126 and the “WTAP.R.V Norm_20 Average” value [1] was 1.278. For the same compound, the “Wee1.R.C Norm_20 Average” value [1] was 0.913, the “Wee1_pS642.R.C Norm_20 Average” value [1] was 0.939 and the “XIAP.R.C Norm_20 Average” value [1] was 0.959. The “XPA.M.V Norm_20 Average” value [1] was 0.905, the “XPF.R.C Norm_20 Average” value [1] was 0.890 and the “YAP.R.C Norm_20 Average” value [1] was 0.956. For the same compound, the “YAP_pS127.R.V Norm_20 Average” value [1] was 1.018, the “YB1_pS102.R.V Norm_20 Average” value [1] was 0.999 and the “YES1.R.V Norm_20 Average” value [1] was 0.970. For the same compound, the “YTHDF2.R.V Norm_20 Average” value [1] was 1.210, the “YTHDF3.R.C Norm_20 Average” value [1] was 1.032 and the “ZAP.70.R.V Norm_20 Average” value [1] was 0.888. For the same compound, the “ZEB1.R.V Norm_20 Average” value [1] was 0.961, the “TSC1.R.C Norm_20_1 to Norm_20_3” value [2] was 1.029 and 0.819 and 0.861 and the “TTF1.R.V Norm_20_1 to Norm_20_3” value [2] was 1.129 and 1.026 and 1.331. For the same compound, the “TUFM.R.V Norm_20_1 to Norm_20_3” value [2] was 0.786 and 0.994 and 0.727, the “Tuberin.R.V Norm_20_1 to Norm_20_3” value [2] was 0.859 and 0.737 and 1.461 and the “Tuberin_pT1462.R.V Norm_20_1 to Norm_20_3” value [2] was 1.032 and 1.164. The “Twist.M.C Norm_20_1 to Norm_20_3” value [2] was 0.837 and 0.972, the “Tyro3.R.V Norm_20_1 to Norm_20_3” value [2] was 1.252 and 1.345 and 1.211 and the “U.Histone.H2B.R.C Norm_20_1 to Norm_20_3” value [2] was 1.699 and 5.734 and 0.577. For the same compound, the “UBAC1.R.V Norm_20_1 to Norm_20_3” value [2] was 1.032 and 1.010 and 1.218, the “UBQLN4.M.C Norm_20_1 to Norm_20_3” value [2] was 0.990 and 0.917 and 0.902 and the “UGT1A.M.V Norm_20_1 to Norm_20_3” value [2] was 0.904 and 1.048 and 0.973. For the same compound, the “ULK1_pS757.R.C Norm_20_1 to Norm_20_3” value [2] was 0.939 and 0.770 and 0.955, the “UQCRC2.M.C Norm_20_1 to Norm_20_3” value [2] was 0.954 and 1.047 and 1.204 and the “UVRAG.R.C Norm_20_1 to Norm_20_3” value [2] was 1.021 and 1.000 and 0.987. For the same compound, the “VASP.R.V Norm_20_1 to Norm_20_3” value [2] was 0.965 and 0.910 and 0.933, the “VAV1.R.C Norm_20_1 to Norm_20_3” value [2] was 1.081 and 0.961 and 0.970 and the “VEGFR.2.R.V Norm_20_1 to Norm_20_3” value [2] was 0.959 and 0.914 and 1.026. The “VEGFR.2_pY1175.R.C Norm_20_1 to Norm_20_3” value [2] was 0.916 and 1.050 and 0.968.
